Reference: the supplement of paper PMC10307832

Experiments:
Experiment in all cases: relative viability (nuclei count vs DMSO), 5 days (fraction); higher = more cells survive
[1] = compound: COC1=C(C=C(C=C1)C2=CC3=NC=CN3C(=N2)NC4=C(C=CC=N4)C(=O)N)OC [BAY61-3606]
Outline: (§1)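 Hoechst staining, done together with fixation and permeabilisation, marked nuclei for 4× imaging and MetaXpress counting. This followed 5 days without medium change after lung cancer cell lines, kept overnight at 37 °C in 1536-well plates, were pinned with five library-drug doses (not always all listed) spaced by √10 on vehicle-anchored plates. Viability is the ratio of treated-well to vehicle-well nuclei, expressed as a median across plates. Plates passed only at control CV below 25% with at least one doubling.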

[2] = compound: COc1cccc2c1C(=O)c1c(O)c3c(c(O)c1C2=O)C[C@@](O)(C(=O)CO)C[C@@H]3O[C@H]1C[C@H](N)[C@H](O)[C@H](C)O1 [Doxorubicin]
Outline: as §1

[3] = compound: COC1=C(C=C(C=C1)C2=CC3=NC=CN3C(=N2)NC4=C(C=CC=N4)C(=O)N)OC [BAY61-3606] + CC1(C)CCC(c2ccc(Cl)cc2)=C(CN2CCN(c3ccc(C(=O)NS(=O)(=O)c4ccc(N[C@H](CCN5CCOCC5)CSc5ccccc5)c(S(=O)(=O)C(F)(F)F)c4)cc3)CC2)C1 [Navitoclax] (partner 0.5 µM)
Outline: (§2)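 Lung cancer cell lines in 1536-well plates got either a single drug or a fixed anchor-drug dose together with five library-drug doses (not always all listed) in √10 steps, by pin tool, on the day after seeding. Nuclei were counted after 5 days, and relative viability is the treated-to-vehicle ratio of nuclei counts. Values are medians of duplicate plates.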

[4] = compound: COc1cccc2c1C(=O)c1c(O)c3c(c(O)c1C2=O)C[C@@](O)(C(=O)CO)C[C@@H]3O[C@H]1C[C@H](N)[C@H](O)[C@H](C)O1 [Doxorubicin] + N=C(N)NC(=N)NCCc1ccccc1 [Phenformin] (partner 250 µM)
Outline: as §2

Cell Line	relative viability ([1]; 0.02 µM)	relative viability ([1]; 0.06325 µM)	relative viability ([1]; 0.2 µM)	relative viability ([1]; 0.6325 µM)	relative viability ([1]; 2 µM)	relative viability ([2]; 0.001 µM)	relative viability ([2]; 0.003162 µM)	relative viability ([2]; 0.01 µM)	relative viability ([2]; 0.03162 µM)	relative viability ([2]; 0.1 µM)	relative viability ([3]; first compound 0.02 µM)	relative viability ([3]; first compound 0.06325 µM)	relative viability ([3]; first compound 0.2 µM)	relative viability ([3]; first compound 0.6325 µM)	relative viability ([3]; first compound 2 µM)	relative viability ([4]; first compound 0.001 µM)	relative viability ([4]; first compound 0.003162 µM)	relative viability ([4]; first compound 0.01 µM)	relative viability ([4]; first compound 0.03162 µM)	relative viability ([4]; first compound 0.1 µM)
201T	0.996	0.959	1	1.01	0.95	0.867	0.985	0.987	0.978	0.942	1.22	1.2	1.23	1.21	1.3	0.442	0.476	0.468	0.416	0.432
HCC-78	1.04	0.934	0.973	0.985	1.08	1	0.999	0.851	0.955	0.954	0.915	0.652	0.905	0.802	0.801	0.778	0.768	0.659	0.706	0.625
NCI-H727	1	0.923	0.983	1.01	0.901	0.874	0.971	0.76	0.928	0.812	0.45	0.512	0.419	0.525	0.33	0.499	0.472	0.696	0.539	0.404
H3255	0.976	0.905	0.928	1.16	0.898	0.892	0.993	0.931	0.849	0.727	0.555	0.54	0.502	0.494	0.609	0.371	0.363	0.333	0.374	0.311
NCI-H838	1.03	0.942	0.999	0.934	0.668	1	0.988	0.964	0.807	0.552	1.3	1.24	1.07	1.12	0.956	0.502	0.607	0.556	0.346	0.19
NCI-H2085	1.08	1.03	0.995	1.08	0.934	0.971	0.996	0.994	0.926	0.95	1.31	1.23	1.12	1.33	1.01	0.733	0.709	0.653	0.545	0.478
NCI-H2405	1.07	0.984	0.977	0.968	0.84	0.972	1.04	1.08	0.997	0.626	0.904	0.669	0.857	1.08	0.655	0.346	0.373	0.436	0.419	0.355
NCI-H2170	0.983	0.978	0.974	1.03	0.932	0.973	0.992	0.93	0.799	1.02	0.618	0.607	0.572	0.517	0.259	0.379	0.388	0.411	0.485	0.432
NCI-H1944	1.08	1	0.95	0.785	0.619	0.929	1.02	0.902	0.692	0.802	1.12	1.1	1.01	1.02	1.04	0.182	0.224	0.206	0.177	0.172
A549	1.01	1.07	0.959	1.05	0.857	1	0.991	0.869	0.395	0.503	1.24	1.14	1.33	1.22	0.916	–	0.142	0.149	0.137	0.0431
EKVX	1.04	1	0.884	1.07	0.99	1.01	1.03	0.963	0.951	0.902	1.04	1.04	0.884	0.959	0.938	0.255	0.236	0.237	0.245	0.22
SK-MES-1	1.02	0.994	0.974	1.06	0.891	0.997	1.06	0.906	0.594	0.542	1.32	1.3	1.24	1.39	1.09	0.655	0.648	0.612	0.285	0.222
EPLC-272H	1.02	1.05	0.894	0.873	0.729	0.84	0.949	0.932	0.792	0.964	1.1	1	0.934	1.19	1.19	0.325	0.32	0.395	0.256	0.299
NCI-H1650	1.06	0.883	0.964	1.11	0.527	0.823	0.809	0.481	0.255	0.159	1.21	1.19	1.16	1.27	0.751	0.365	0.35	0.222	0.126	0.11
NCI-H1395	1.02	0.811	0.826	0.895	0.811	0.919	1.05	1.02	0.891	0.629	1.26	1.04	1.49	1.35	0.966	0.43	0.44	0.447	0.414	0.449
NCI-H2228	1.18	0.922	0.944	1.06	0.792	0.859	1	0.822	0.606	0.339	1.18	0.736	0.658	1.08	0.713	0.284	0.312	0.242	0.107	0.118
